Laboratory results taken from publication PMC12323621, “Exploring the antimicrobial activity of pantothenamides against uropathogenic Escherichia coli” (Microbiology Spectrum, 2025).
Where two headings read alike, the source gives them in different places.

Experiment: Phase I metabolic stability in mouse liver microsomes
Assay type: in vitro ADME
Conditions: for remaining at 1 h, 1 µM: mouse, liver microsomes, pH 7.4, 1 h; for stability in mouse liver microsomes: n = 3
Procedure: Stability studies were conducted in mouse liver microsomes, mouse liver tissue homogenate, and CD1 mouse plasma as previously described with minor modifications ([54][–][56]). Briefly, for Phase I mouse liver microsome stability, reactions were carried out with 200 mM potassium phosphate buffer, pH 7.4, with or without an NADPH-regenerating system (1.3 mM NADPH, 3.3 mM glucose 6-phosphate, 3.3 mM MgCl2, 0.4 U/mL glucose-6-phosphate dehydrogenase, and 50 µM sodium citrate). Reactions, in triplicate, were initiated by the addition of liver microsomes to the incubation mixture (compound final concentration was 1 µM; 0.2 mg/mL microsomes) and incubated at 37°C for the desired incubation time. For liver stability, the tissue homogenate was prepared by washing tissues with diluted 10-fold 0.1 M potassium phosphate buffer and homogenized using a probe sonicator over ice. To evaluate the stability of the drugs over time, each of the crude homogenates was aliquoted to 1 mL and then spiked with a final assay concentration of 10 µM of each drug, followed by incubation in an orbital shaker at 37°C for 1 h (in triplicate). For plasma stability, 1 mL of plasma was spiked with 10 µM of each drug, followed by incubation in an orbital shaker at 37°C for 1 h (in triplicate). Samples from each metabolism study were quenched with 3× volume of acetonitrile containing internal standard (losartan: 0.5 µM) at the desired incubation times. […] Samples were vortex-mixed for 30 s and centrifuged at 10,000 × g for 10 min at 4°C. Compound disappearance over time was monitored using a Dionex ultra-high-performance liquid chromatography system consisting of an analytical pump and an autosampler coupled with Q Exactive Focus orbitrap mass spectrometer (Thermo Fisher Scientific Inc., Waltham MA). […] The mobile phase used was composed of 0.1% formic acid in water and 0.1% formic acid in acetonitrile with gradient elution. The total run time for each analyte was 5 min.
The mass spectrometer was operated with a HESI ion source in positive ionization mode where compounds were identified in the full scan mode (from m/z 75.00–1125.00) and controlled by the Xcalibur software 4.0.27.13 (Thermo Scientific). Data were acquired using Xcalibur software. Drugs were identified in the full-scan mode (from m/z 75.00 to 1125.00) by comparing t = 0 samples with t = 30 or 60 min samples, and structures were proposed based on the accurate mass information. The percentage of compound remaining for pantothenamides 1, 6, and 7 was determined from the analyte/internal standard (IS) area ratios obtained at t = 30 or 60 min relative to the mean ratios obtained at t = 0 min and calculated using equation 1:
% Remaining=(Peak area of Analyte/Preak area of ISat t=30 or 60 min/MeanPeak area of Analyte/Peak area of ISat t=0 min)×100

remaining at 1 h, 1 µM (with NADPH, 1 µM compound, 0.2 mg/mL microsomes, read-out: % remaining in mouse liver microsomes, presence of NADPH) [%]	remaining at 1 h, 1 µM (without NADPH, 1 µM compound, 0.2 mg/mL microsomes, read-out: % remaining in mouse liver microsomes, absence of NADPH) [%]	stability in mouse liver microsomes	% remaining in mouse liver microsomes, presence of NADPH (1 h, with NADPH, 1 µM compound, 0.2 mg/mL microsomes)	% remaining in mouse liver microsomes, absence of NADPH (1 h, without NADPH, 1 µM compound, 0.2 mg/mL microsomes)	SMILES
90	93	good stability			CCCCCNC(=O)CCNC(=O)[C@H](O)C(C)(C)CO [compound 1, N-pentylpantothenamide, reference compound]
		good stability	no degradation	no degradation	CCCCCNC(=O)CNC(=O)[C@H](O)C(C)(C)CO [compound 6, N5-α-pantothenamide]
